Laboratory results taken from ChEMBL document CHEMBL3044636, “Effectiveness of five insecticides for the control of adults and young stages of Cacopsylla melanoneura (Förster) (Hemiptera: Psyllidae) in a semi-field trial” (2010).
Activity calls are given as the source filed them. The calls are words filed in the database; no cut-off is given here.

What was measured:
Cacopsylla melanoneura [1] = experiment: Insecticidal activity against adult of Cacopsylla melanoneura in apple plant assessed as reduction of progeny per female at 787.5 g/ha treated for 14 days measured after 7 days; type: functional, organism-based
Cacopsylla melanoneura [2] = experiment: Insecticidal activity against adult of Cacopsylla melanoneura in apple plant assessed as overwintered female mortality at 787.5 g/ha treated for 14 days measured after 3 days relative to control; type: functional
Cacopsylla melanoneura [3] = experiment: Insecticidal activity against adult of Cacopsylla melanoneura in apple plant assessed as overwintered female mortality at 787.5 g/ha treated for 14 days measured after 1 day relative to control; type: functional
Cacopsylla melanoneura [4] = experiment: Insecticidal activity against adult of Cacopsylla melanoneura in apple plant assessed as reduction of progeny per female at 787.5 g/ha treated for 7 days measured after 7 days; type: functional, organism-based
Cacopsylla melanoneura [5] = experiment: Insecticidal activity against adult of Cacopsylla melanoneura in apple plant assessed as overwintered female mortality at 787.5 g/ha treated for 7 days measured after 3 days relative to control; type: functional
Cacopsylla melanoneura [6] = experiment: Insecticidal activity against adult of Cacopsylla melanoneura in apple plant assessed as overwintered female mortality at 787.5 g/ha treated for 7 days measured after 1 day relative to control; type: functional
Cacopsylla melanoneura [7] = experiment: Insecticidal activity against adult of Cacopsylla melanoneura in apple plant assessed as reduction of progeny per female at 787.5 g/ha treated for 1 hr measured after 7 days; type: functional, organism-based
Cacopsylla melanoneura [8] = experiment: Insecticidal activity against adult of Cacopsylla melanoneura in apple plant assessed as overwintered female mortality at 787.5 g/ha treated for 1 hr measured after 3 days relative to control; type: functional
Cacopsylla melanoneura [9] = experiment: Insecticidal activity against adult of Cacopsylla melanoneura in apple plant assessed as overwintered female mortality at 787.5 g/ha treated for 1 hr measured after 1 day relative to control; type: functional
Cacopsylla melanoneura [10] = experiment: Insecticidal activity against young stage of Cacopsylla melanoneura in apple plant assessed as mortality at 787.5 g/ha treated for 14 days measured after 7 days relative to control; type: functional
Cacopsylla melanoneura [11] = experiment: Insecticidal activity against young stage of Cacopsylla melanoneura in apple plant assessed as mortality at 787.5 g/ha treated for 7 days measured after 7 days relative to control; type: functional
Cacopsylla melanoneura [12] = experiment: Insecticidal activity against young stage of Cacopsylla melanoneura in apple plant assessed as mortality at 787.5 g/ha treated for 1 hr measured after 7 days relative to control; type: functional
Cacopsylla melanoneura [13] = experiment: Insecticidal activity against young stage of Cacopsylla melanoneura in apple plant assessed as mortality at 135 g/ha treated for 14 days measured after 7 days relative to control; type: functional
Cacopsylla melanoneura [14] = experiment: Insecticidal activity against young stage of Cacopsylla melanoneura in apple plant assessed as mortality at 135 g/ha treated for 7 days measured after 7 days relative to control; type: functional
Cacopsylla melanoneura [15] = experiment: Insecticidal activity against adult of Cacopsylla melanoneura in apple plant assessed as overwintered female mortality at 135 g/ha treated for 1 hr measured after 3 days relative to control; type: functional
Cacopsylla melanoneura [16] = experiment: Insecticidal activity against adult of Cacopsylla melanoneura in apple plant assessed as overwintered female mortality at 135 g/ha treated for 1 hr measured after 1 day relative to control; type: functional
Cacopsylla melanoneura [17] = experiment: Insecticidal activity against adult of Cacopsylla melanoneura in apple plant assessed as reduction of progeny per female at 135 g/ha treated for 14 days measured after 7 days; type: functional, organism-based
Cacopsylla melanoneura [18] = experiment: Insecticidal activity against adult of Cacopsylla melanoneura in apple plant assessed as overwintered female mortality at 135 g/ha treated for 14 days measured after 3 days relative to control; type: functional
Cacopsylla melanoneura [19] = experiment: Insecticidal activity against adult of Cacopsylla melanoneura in apple plant assessed as overwintered female mortality at 135 g/ha treated for 14 days measured after 1 day relative to control; type: functional
Cacopsylla melanoneura [20] = experiment: Insecticidal activity against adult of Cacopsylla melanoneura in apple plant assessed as reduction of progeny per female at 135 g/ha treated for 7 days measured after 7 days; type: functional, organism-based
Cacopsylla melanoneura [21] = experiment: Insecticidal activity against adult of Cacopsylla melanoneura in apple plant assessed as overwintered female mortality at 135 g/ha treated for 7 days measured after 3 days relative to control; type: functional
Cacopsylla melanoneura [22] = experiment: Insecticidal activity against adult of Cacopsylla melanoneura in apple plant assessed as overwintered female mortality at 135 g/ha treated for 7 days measured after 1 day relative to control; type: functional
Cacopsylla melanoneura [23] = experiment: Insecticidal activity against adult of Cacopsylla melanoneura in apple plant assessed as reduction of progeny per female at 135 g/ha treated for 1 hr measured after 7 days; type: functional, organism-based
Cacopsylla melanoneura [24] = experiment: Insecticidal activity against young stage of Cacopsylla melanoneura in apple plant assessed as mortality at 135 g/ha treated for 1 hr measured after 7 days relative to control; type: functional

SMILES: CCOP(=S)(OCC)Oc1nc(Cl)c(Cl)cc1Cl [CHLORPYRIFOS]
- Activity (Cacopsylla melanoneura [1]): Active
- Activity (Cacopsylla melanoneura [2]): 93.3%
- Activity (Cacopsylla melanoneura [3]): 93.3%
- Activity (Cacopsylla melanoneura [4]): Active
- Activity (Cacopsylla melanoneura [5]): 100%
- Activity (Cacopsylla melanoneura [6]): 100%
- Activity (Cacopsylla melanoneura [7]): Active
- Activity (Cacopsylla melanoneura [8]): 100%
- Activity (Cacopsylla melanoneura [9]): 100%
- Activity (Cacopsylla melanoneura [10]): 100%
- Activity (Cacopsylla melanoneura [11]): 100%
- Activity (Cacopsylla melanoneura [12]): 98.3%

SMILES: CCOc1ccc(C(C)(C)COCc2cccc(Oc3ccccc3)c2)cc1 [ETOFENPROX]
- Activity (Cacopsylla melanoneura [13]): 100%
- Activity (Cacopsylla melanoneura [14]): 100%
- Activity (Cacopsylla melanoneura [15]): 100%
- Activity (Cacopsylla melanoneura [16]): 93.3%
- Activity (Cacopsylla melanoneura [17]): Active
- Activity (Cacopsylla melanoneura [18]): 100%
- Activity (Cacopsylla melanoneura [19]): 100%
- Activity (Cacopsylla melanoneura [20]): Active
- Activity (Cacopsylla melanoneura [21]): 93.3%
- Activity (Cacopsylla melanoneura [22]): 93.3%
- Activity (Cacopsylla melanoneura [23]): Active
- Activity (Cacopsylla melanoneura [24]): 98.3%
